Data taken from patent US20230085307A1, “PYRIDAZINONE COMPOUND AND HERBICIDE” (NISSAN CHEMICAL CORPORATION, priority 2019, published 2023).

Legend:
chickweed [1] = assay: Test Example 4: herbicidal effect by soil treatment (Table 19, symbol P); type: in vivo, common chickweed (Stellaria media); details: amount of applied herbicide 320 g/ha
Procedure, shortened: (§1)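 Applied as a water-diluted emulsion, the compound was sprayed onto soil covering newly sown seeds. Evaluation came three weeks after application, in a greenhouse held at 25° C. to 30° C.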

barnyard grass [2] = assay: Test Example 5: herbicidal effect by foliage application, plastic box (Table 20, symbol H); type: in vivo, barnyard grass (Echinochloa crus-galli); details: foliage application, 320 g/ha, three weeks after application
Procedure, shortened: (§2)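 Sow seeds spot-wise in sterilized diluvial soil; cover with ~1.5 cm soil. Grow 14 days in greenhouse, 25° C. to 30° C. Spray foliage with emulsion diluted to predetermined amount. Rate effect after 3 weeks.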

redroot pigweed [3] = assay: Test Example 4: herbicidal effect by soil treatment (Table 19, symbol N); type: in vivo, redroot pigweed (Amaranthus retroflexus); details: amount of applied herbicide 320 g/ha
Procedure, shortened: as §1

green foxtail [4] = assay: Test Example 4: herbicidal effect by soil treatment (Table 19, symbol G); type: in vivo, green foxtail (Setaria viridis); details: amount of applied herbicide 320 g/ha
Procedure, shortened: as §1

southern crabgrass [5] = assay: Test Example 4: herbicidal effect by soil treatment (Table 19, symbol F); type: in vivo, southern crabgrass (Digitaria ciliaris); details: amount of applied herbicide 320 g/ha
Procedure, shortened: as §1

chickweed [6] = assay: Test Example 5: herbicidal effect by foliage application, plastic box (Table 20, symbol P); type: in vivo, common chickweed (Stellaria media); details: foliage application, 320 g/ha, three weeks after application
Procedure, shortened: as §2

velvetleaf [7] = assay: Test Example 5: herbicidal effect by foliage application, plastic box (Table 20, symbol M); type: in vivo, velvetleaf (Abutilon theophrasti); details: foliage application, 320 g/ha, three weeks after application
Procedure, shortened: as §2

blackgrass [8] = assay: Test Example 5: herbicidal effect by foliage application, plastic box (Table 20, symbol J); type: in vivo, blackgrass (Alopecurus myosuroides); details: foliage application, 320 g/ha, three weeks after application
Procedure, shortened: as §2

lambsquarters [9] = assay: Test Example 5: herbicidal effect by foliage application, plastic box (Table 20, symbol O); type: in vivo, lambsquarters (Chenopodium album); details: foliage application, 320 g/ha, three weeks after application
Procedure, shortened: as §2

Italian ryegrass [10] = assay: Test Example 4: herbicidal effect by soil treatment (Table 19, symbol K); type: in vivo, Italian ryegrass (Lolium multiflorum); details: amount of applied herbicide 320 g/ha
Procedure, shortened: as §1

persian speedwell [11] = assay: Test Example 4: herbicidal effect by soil treatment (Table 19, symbol R); type: in vivo, Persian speedwell (Veronica persica); details: amount of applied herbicide 320 g/ha
Procedure, shortened: as §1

redroot pigweed [12] = assay: Test Example 5: herbicidal effect by foliage application, plastic box (Table 20, symbol N); type: in vivo, redroot pigweed (Amaranthus retroflexus); details: foliage application, 320 g/ha, three weeks after application
Procedure, shortened: as §2

barnyard grass [13] = assay: Test Example 4: herbicidal effect by soil treatment (Table 19, symbol H); type: in vivo, barnyard grass (Echinochloa crus-galli); details: amount of applied herbicide 320 g/ha
Procedure, shortened: as §1

persian speedwell [14] = assay: Test Example 5: herbicidal effect by foliage application, plastic box (Table 20, symbol R); type: in vivo, Persian speedwell (Veronica persica); details: foliage application, 320 g/ha, three weeks after application
Procedure, shortened: as §2

blackgrass [15] = assay: Test Example 4: herbicidal effect by soil treatment (Table 19, symbol J); type: in vivo, blackgrass (Alopecurus myosuroides); details: amount of applied herbicide 320 g/ha
Procedure, shortened: as §1

velvetleaf [16] = assay: Test Example 4: herbicidal effect by soil treatment (Table 19, symbol M); type: in vivo, velvetleaf (Abutilon theophrasti); details: amount of applied herbicide 320 g/ha
Procedure, shortened: as §1

Italian ryegrass [17] = assay: Test Example 5: herbicidal effect by foliage application, plastic box (Table 20, symbol K); type: in vivo, Italian ryegrass (Lolium multiflorum); details: foliage application, 320 g/ha, three weeks after application
Procedure, shortened: as §2

wild oat [18] = assay: Test Example 4: herbicidal effect by soil treatment (Table 19, symbol I); type: in vivo, wild oat (Avena fatua); details: amount of applied herbicide 320 g/ha
Procedure, shortened: as §1

windgrass [19] = assay: Test Example 4: herbicidal effect by soil treatment (Table 19, symbol L); type: in vivo, windgrass (Apera spica-venti); details: amount of applied herbicide 320 g/ha
Procedure, shortened: as §1

green foxtail [20] = assay: Test Example 5: herbicidal effect by foliage application, plastic box (Table 20, symbol G); type: in vivo, green foxtail (Setaria viridis); details: foliage application, 320 g/ha, three weeks after application
Procedure, shortened: as §2

lambsquarters [21] = assay: Test Example 4: herbicidal effect by soil treatment (Table 19, symbol O); type: in vivo, lambsquarters (Chenopodium album); details: amount of applied herbicide 320 g/ha
Procedure, shortened: as §1

wild oat [22] = assay: Test Example 5: herbicidal effect by foliage application, plastic box (Table 20, symbol I); type: in vivo, wild oat (Avena fatua); details: foliage application, 320 g/ha, three weeks after application
Procedure, shortened: as §2

false cleavers = assay: Test Example 4: herbicidal effect by soil treatment (Table 19, symbol Q); type: in vivo, false cleavers (Galium spurium); details: amount of applied herbicide 320 g/ha
Procedure, shortened: as §1

windgrass [23] = assay: Test Example 5: herbicidal effect by foliage application, plastic box (Table 20, symbol L); type: in vivo, windgrass (Apera spica-venti); details: foliage application, 320 g/ha, three weeks after application
Procedure, shortened: as §2

southern crabgrass [24] = assay: Test Example 5: herbicidal effect by foliage application, plastic box (Table 20, symbol F); type: in vivo, southern crabgrass (Digitaria ciliaris); details: foliage application, 320 g/ha, three weeks after application
Procedure, shortened: as §2

barnyard grass [25] = assay: Test Example 3: herbicidal effect by foliage application, Wagner pot (Table 18, symbol H); type: in vivo, barnyard grass (Echinochloa crus-galli); details: amount of applied herbicide 320 g/ha
Procedure, shortened: (§3)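 Plants were sown in alluvial soil held under 0.1–0.5 cm standing water and grown 14 days in a greenhouse at 25–30 °C. An emulsifiable formulation, water-diluted to the set dose, was then sprayed onto the foliage, and effects were scored three weeks later using previously defined criteria.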

Chinese sprangletop = assay: Test Example 3: herbicidal effect by foliage application, Wagner pot (Table 18, symbol D); type: in vivo, chinese sprangletop (Leptochloa chinensis); details: amount of applied herbicide 320 g/ha
Procedure, shortened: as §3

rice flat sedge = assay: Test Example 3: herbicidal effect by foliage application, Wagner pot (Table 18, symbol E); type: in vivo, rice flat sedge (Cyperus iria); details: amount of applied herbicide 320 g/ha
Procedure, shortened: as §3

Cc1nn(C)c(=O)c(-c2c(-c3ccc(SCC#N)cc3)sc3ccc(F)cc23)c1O [2-423]
herbicidal effect, P: chickweed (chickweed [1]): 5 (Herbicidal rate of 90% or more (almost completely withered)) | H: barnyard grass, herbicidal effect grade (barnyard grass [2]): 5 (Herbicidal rate of 90% or more (almost completely withered)) | herbicidal effect, N: redroot pigweed (redroot pigweed [3]): 5 (Herbicidal rate of 90% or more (almost completely withered)) | herbicidal effect, G: green foxtail (green foxtail [4]): 4 (Herbicidal rate of 70% or more and less than 90%) | herbicidal effect, F: southern crabgrass (southern crabgrass [5]): 0 (Herbicidal rate of 5% or less (almost no effect)) | P: chickweed, herbicidal effect grade (chickweed [6]): 5 (Herbicidal rate of 90% or more (almost completely withered)) | M: velvetleaf, herbicidal effect grade (velvetleaf [7]): 5 (Herbicidal rate of 90% or more (almost completely withered)) | J: blackgrass, herbicidal effect grade (blackgrass [8]): 4 (Herbicidal rate of 70% or more and less than 90%) | O: lambsquarters, herbicidal effect grade (lambsquarters [9]): 5 (Herbicidal rate of 90% or more (almost completely withered)) | herbicidal effect, K: Italian ryegrass (Italian ryegrass [10]): 3 (Herbicidal rate of 40% or more and less than 70%) | herbicidal effect, R: persian speedwell (persian speedwell [11]): 4 (Herbicidal rate of 70% or more and less than 90%) | N: redroot pigweed, herbicidal effect grade (redroot pigweed [12]): 5 (Herbicidal rate of 90% or more (almost completely withered)) | herbicidal effect, H: barnyard grass (barnyard grass [13]): 1 (Herbicidal rate of 5% or more and less than 20%) | R: persian speedwell, herbicidal effect grade (persian speedwell [14]): 5 (Herbicidal rate of 90% or more (almost completely withered)) | herbicidal effect, J: blackgrass (blackgrass [15]): 0 (Herbicidal rate of 5% or less (almost no effect)) | herbicidal effect, M: velvetleaf (velvetleaf [16]): 1 (Herbicidal rate of 5% or more and less than 20%) | K: Italian ryegrass, herbicidal effect grade (Italian ryegrass [17]): 5 (Herbicidal rate of 90% or more (almost completely withered)) | herbicidal effect, I: wild oat (wild oat [18]): 0 (Herbicidal rate of 5% or less (almost no effect)) | herbicidal effect, L: windgrass (windgrass [19]): 1 (Herbicidal rate of 5% or more and less than 20%) | G: green foxtail, herbicidal effect grade (green foxtail [20]): 5 (Herbicidal rate of 90% or more (almost completely withered)) | herbicidal effect, O: lambsquarters (lambsquarters [21]): 4 (Herbicidal rate of 70% or more and less than 90%) | I: wild oat, herbicidal effect grade (wild oat [22]): 5 (Herbicidal rate of 90% or more (almost completely withered)) | herbicidal effect, Q: false cleavers (false cleavers): 0 (Herbicidal rate of 5% or less (almost no effect)) | L: windgrass, herbicidal effect grade (windgrass [23]): 5 (Herbicidal rate of 90% or more (almost completely withered)) | F: southern crabgrass, herbicidal effect grade (southern crabgrass [24]): 0 (Herbicidal rate of 5% or less (almost no effect))

Cc1nn(C)c(=O)c(-c2c(-c3ccc(F)cc3)oc3ccc(F)cc23)c1O [9-014]
P: chickweed, herbicidal effect grade (chickweed [1]): 5 (Herbicidal rate of 90% or more (almost completely withered)) | herbicidal effect on barnyard grass (H) (barnyard grass [2]): 4 (Herbicidal rate of 70% or more and less than 90%) | N: redroot pigweed, herbicidal effect grade (redroot pigweed [3]): 5 (Herbicidal rate of 90% or more (almost completely withered)) | G: green foxtail, herbicidal effect grade (green foxtail [4]): 5 (Herbicidal rate of 90% or more (almost completely withered)) | F: southern crabgrass, herbicidal effect grade (southern crabgrass [5]): 4 (Herbicidal rate of 70% or more and less than 90%) | herbicidal effect on velvetleaf (M) (velvetleaf [7]): 3 (Herbicidal rate of 40% or more and less than 70%) | herbicidal effect on blackgrass (J) (blackgrass [8]): 4 (Herbicidal rate of 70% or more and less than 90%) | herbicidal effect on lambsquarters (O) (lambsquarters [9]): 4 (Herbicidal rate of 70% or more and less than 90%) | K: Italian ryegrass, herbicidal effect grade (Italian ryegrass [10]): 5 (Herbicidal rate of 90% or more (almost completely withered)) | R: persian speedwell, herbicidal effect grade (persian speedwell [11]): 4 (Herbicidal rate of 70% or more and less than 90%) | H: barnyard grass, herbicidal effect grade (barnyard grass [13]): 4 (Herbicidal rate of 70% or more and less than 90%) | herbicidal effect on persian speedwell (R) (persian speedwell [14]): 5 (Herbicidal rate of 90% or more (almost completely withered)) | J: blackgrass, herbicidal effect grade (blackgrass [15]): 4 (Herbicidal rate of 70% or more and less than 90%) | M: velvetleaf, herbicidal effect grade (velvetleaf [16]): 4 (Herbicidal rate of 70% or more and less than 90%) | herbicidal effect on Italian ryegrass (K) (Italian ryegrass [17]): 5 (Herbicidal rate of 90% or more (almost completely withered)) | I: wild oat, herbicidal effect grade (wild oat [18]): 1 (Herbicidal rate of 5% or more and less than 20%) | L: windgrass, herbicidal effect grade (windgrass [19]): 0 (Herbicidal rate of 5% or less (almost no effect)) | Herbicidal effect on H (barnyard grass), foliage application (barnyard grass [25]): 3 (Herbicidal rate of 40% or more and less than 70%) | herbicidal effect on green foxtail (G) (green foxtail [20]): 4 (Herbicidal rate of 70% or more and less than 90%) | O: lambsquarters, herbicidal effect grade (lambsquarters [21]): 3 (Herbicidal rate of 40% or more and less than 70%) | herbicidal effect on wild oat (I) (wild oat [22]): 3 (Herbicidal rate of 40% or more and less than 70%) | Herbicidal effect on D (Chinese sprangletop), foliage application (Chinese sprangletop): 3 (Herbicidal rate of 40% or more and less than 70%) | Q: false cleavers, herbicidal effect grade (false cleavers): 0 (Herbicidal rate of 5% or less (almost no effect)) | herbicidal effect on windgrass (L) (windgrass [23]): 4 (Herbicidal rate of 70% or more and less than 90%) | herbicidal effect on southern crabgrass (F) (southern crabgrass [24]): 2 (Herbicidal rate of 20% or more and less than 40%) | Herbicidal effect on E (rice flat sedge), foliage application (rice flat sedge): 5 (Herbicidal rate of 90% or more (almost completely withered))
